What all share (format): ADME, organism-based
Common to all, as to settings: in vivo

A short description of data set [1]: Half life in CD-1 mouse at 5 mg/kg, po administered as single dose by LC-MS/MS analysis.
Data set [2] is described as follows: AUC (0 to infinity) in CD-1 mouse at 5 mg/kg, po administered as single dose by LC-MS/MS analysis. Details: dose 5 mg/kg, route oral, time infinity.
Data set [3] can be described thus: AUC (0 to t) in CD-1 mouse at 5 mg/kg, po administered as single dose by LC-MS/MS analysis.
Data set [4] in a line: Cmax in CD-1 mouse at 5 mg/kg, po administered as single dose by LC-MS/MS analysis. Details: dose 5 mg/kg, route oral.
Data set [5] in a line: Tmax in CD-1 mouse at 5 mg/kg, po administered as single dose by LC-MS/MS analysis.

Regarding `[2H]c1nc(-c2cc(NC(=O)c3ccc(S(C)(=O)=O)cc3Cl)ccc2Cl)c([2H])c([2H])c1[2H]`, the half-life (as a rule, the time needed for the level to fall by half in the phase considered) in data set [1] is 8.55 h. The AUC(0-inf) (commonly total exposure, with the tail of the curve extrapolated) in data set [2] turned out to be 17100 ng·h/mL. For the same compound, the AUC(0-t) (commonly exposure summed from dosing to a finite time, without extrapolation to infinity) in data set [3] is 6510 ng·h/mL. In data set [4], the highest level (Cmax) was 1870 ng/mL. In addition, the Tmax – broadly, the time at which the peak concentration occurs – in data set [5] came out at 1 h.
On the same counts, the results for `[2H]c1cc(Cl)c(-c2ccccn2)c([2H])c1NC(=O)c1ccc(S(C)(=O)=O)cc1Cl` are 2.82 h, 8290 ng·h/mL, 6280 ng·h/mL, 1610 ng/mL and 1 h.
In data set [1], `CS(=O)(=O)c1ccc(C(=O)Nc2ccc(Cl)c(-c3ccccn3)c2)c(Cl)c1` [VISMODEGIB] gave a half-life of 5.62 h. Besides, the AUC(0-inf) in data set [2] worked out at 7660 ng·h/mL. Moreover, the area under the curve AUC(0-t) in data set [3] came out at 4050 ng·h/mL. Also, in data set [4], the Cmax (in general, the highest concentration seen after dosing) is 854 ng/mL. In addition, the time to peak (Tmax) in data set [5] turned out to be 1 h.
`[2H]c1cc(Cl)c(-c2nc([2H])c([2H])c([2H])c2[2H])c([2H])c1NC(=O)c1ccc(S(C)(=O)=O)cc1Cl` gave a half-life in data set [1] of 2.56 h. Further, in data set [2], the area under the curve AUC(0-inf) came to 6110 ng·h/mL. The same compound returned an exposure AUC(0-t) in data set [3] of 6110 ng·h/mL. In data set [4], this compound registered a Cmax of 972 ng/mL. Besides, the time to peak (Tmax) in data set [5] is 1 h.

For the origin of these results see ChEMBL document CHEMBL4118278, “Design, synthesis and biological evaluation of deuterated Vismodegib for improving pharmacokinetic properties” (Bioorg Med Chem Lett, 2018).
